Source: PubChem BioAssay (NCI)
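Following 48 hours of exposure in 96-well plates, responses at five concentrations were used to interpolate endpoints linearly. Definition used: TGI = concentration required for complete inhibition of growth.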

Columns and labels:
Experiment in all cases: growth of human tumour cells (NCI), 48 h
786-0 renal = test system: 786-0 renal
A498 renal = test system: A498 renal
LOX IMVI melanoma = test system: LOX IMVI melanoma
PC-3 prostate = test system: PC-3 prostate
SF-268 CNS = test system: SF-268 CNS
SF-539 CNS = test system: SF-539 CNS
SK-MEL-28 melanoma = test system: SK-MEL-28 melanoma
SNB-19 CNS = test system: SNB-19 CNS
TK-10 renal = test system: TK-10 renal
UACC-257 melanoma = test system: UACC-257 melanoma

SMILES: NC(N)=NCC(N)C(=O)O (stereo not given)
- TGI (786-0 renal): > 100 µM
- TGI (A498 renal): > 100 µM
- TGI (LOX IMVI melanoma): > 100 µM
- TGI (PC-3 prostate): > 100 µM
- TGI (SF-268 CNS): > 100 µM
- TGI (SF-539 CNS): > 100 µM
- TGI (SK-MEL-28 melanoma): > 100 µM
- TGI (SNB-19 CNS): > 100 µM
- TGI (TK-10 renal): > 100 µM
- TGI (UACC-257 melanoma): > 100 µM

SMILES: C=CCC(CNC(=O)OCc1ccccc1)OC(=O)OCc1ccccc1 (stereo not given)
- TGI (786-0 renal): > 100 µM
- TGI (A498 renal): > 100 µM
- TGI (LOX IMVI melanoma): > 100 µM
- TGI (PC-3 prostate): > 100 µM
- TGI (SF-268 CNS): > 100 µM
- TGI (SF-539 CNS): > 100 µM
- TGI (SK-MEL-28 melanoma): > 100 µM
- TGI (SNB-19 CNS): > 100 µM
- TGI (TK-10 renal): > 100 µM
- TGI (UACC-257 melanoma): > 100 µM

SMILES: Cc1cc(O)c(C(C)C)cc1N=Cc1ccccc1O
- TGI (786-0 renal): 26.3 µM
- TGI (A498 renal): 66.2 µM
- TGI (LOX IMVI melanoma): > 84.3 µM
- TGI (PC-3 prostate): 22.4 µM
- TGI (SF-268 CNS): 21.4 µM
- TGI (SF-539 CNS): 49.3 µM
- TGI (SK-MEL-28 melanoma): 31.4 µM
- TGI (SNB-19 CNS): 36.5 µM
- TGI (TK-10 renal): 26.9 µM
- TGI (UACC-257 melanoma): 24.4 µM

SMILES: O=[N+]([O-])c1cc(Cl)ccc1S(=O)(=O)N1CCCc2cc(Cl)ccc21
- TGI (786-0 renal): > 100 µM
- TGI (A498 renal): > 100 µM
- TGI (LOX IMVI melanoma): > 100 µM
- TGI (PC-3 prostate): > 100 µM
- TGI (SF-268 CNS): > 100 µM
- TGI (SF-539 CNS): > 100 µM
- TGI (SK-MEL-28 melanoma): > 100 µM
- TGI (SNB-19 CNS): > 100 µM
- TGI (TK-10 renal): > 100 µM
- TGI (UACC-257 melanoma): 83.7 µM

SMILES: CC(=O)OCC1OC(N2C(S)=C(C#N)C(c3ccco3)C(C(C)=O)=C2c2ccccc2)C(OC(C)=O)C(OC(C)=O)C1OC(C)=O (stereo not given)
- TGI (786-0 renal): > 100 µM
- TGI (A498 renal): > 100 µM
- TGI (LOX IMVI melanoma): > 100 µM
- TGI (PC-3 prostate): > 100 µM
- TGI (SF-268 CNS): > 100 µM
- TGI (SF-539 CNS): > 100 µM
- TGI (SK-MEL-28 melanoma): > 100 µM
- TGI (SNB-19 CNS): > 100 µM
- TGI (TK-10 renal): > 100 µM
- TGI (UACC-257 melanoma): > 100 µM

SMILES: COc1ccccc1N=C1SCCN1C(=S)Nc1ccc(S(=O)(=O)/N=C/N(C)C)cc1
- TGI (786-0 renal): > 100 µM
- TGI (A498 renal): > 100 µM
- TGI (LOX IMVI melanoma): > 100 µM
- TGI (PC-3 prostate): > 100 µM
- TGI (SF-268 CNS): 55.2 µM
- TGI (SF-539 CNS): > 100 µM
- TGI (SK-MEL-28 melanoma): > 100 µM
- TGI (SNB-19 CNS): > 100 µM
- TGI (TK-10 renal): > 100 µM
- TGI (UACC-257 melanoma): > 100 µM

SMILES: CCCCCCCCCCCCCCCCP(=O)([O-])OCC[N+](C)(C)C
- TGI (786-0 renal): 19.9 µM
- TGI (A498 renal): 29.1 µM
- TGI (LOX IMVI melanoma): 29 µM
- TGI (PC-3 prostate): 8.66 µM
- TGI (SF-268 CNS): 34.1 µM
- TGI (SF-539 CNS): 39.8 µM
- TGI (SK-MEL-28 melanoma): 33.8 µM
- TGI (SNB-19 CNS): > 57.4 µM
- TGI (TK-10 renal): 3.51 µM
- TGI (UACC-257 melanoma): 32.7 µM

SMILES: COc1cccc(-c2cc(=O)c3cc(Cl)cnc3[nH]2)c1
- TGI (786-0 renal): 42.2 µM
- TGI (A498 renal): > 100 µM
- TGI (LOX IMVI melanoma): > 100 µM
- TGI (PC-3 prostate): > 100 µM
- TGI (SF-268 CNS): > 87.3 µM
- TGI (SF-539 CNS): 2.56 µM
- TGI (SK-MEL-28 melanoma): > 100 µM
- TGI (SNB-19 CNS): > 77.2 µM
- TGI (TK-10 renal): > 89.9 µM
- TGI (UACC-257 melanoma): > 100 µM

SMILES: CCOP(=O)(OCC)C(Nc1ccc(F)cc1)c1ccccc1 (stereo not given)
- TGI (786-0 renal): > 100 µM
- TGI (A498 renal): > 100 µM
- TGI (LOX IMVI melanoma): > 100 µM
- TGI (PC-3 prostate): > 100 µM
- TGI (SF-268 CNS): > 100 µM
- TGI (SF-539 CNS): > 100 µM
- TGI (SK-MEL-28 melanoma): > 100 µM
- TGI (SNB-19 CNS): > 100 µM
- TGI (TK-10 renal): > 100 µM
- TGI (UACC-257 melanoma): > 100 µM

SMILES: O=C1OC(=O)C2C1C(c1ccccc1[N+](=O)[O-])C=C(c1ccco1)N2c1ccncc1 (stereo not given)
- TGI (786-0 renal): 3.97 µM
- TGI (A498 renal): 26.9 µM
- TGI (LOX IMVI melanoma): 3.82 µM
- TGI (PC-3 prostate): 28.1 µM
- TGI (SF-268 CNS): 46.3 µM
- TGI (SF-539 CNS): 16.6 µM
- TGI (SK-MEL-28 melanoma): 24.5 µM
- TGI (SNB-19 CNS): 35.5 µM
- TGI (TK-10 renal): > 26.9 µM
- TGI (UACC-257 melanoma): 6.84 µM

SMILES: CN(C)CCNc1nc2c(no[n+]2[O-])c2ccccc12
- TGI (786-0 renal): 99 µM
- TGI (A498 renal): 31.6 µM
- TGI (LOX IMVI melanoma): 35.1 µM
- TGI (PC-3 prostate): 89.5 µM
- TGI (SF-268 CNS): > 100 µM
- TGI (SF-539 CNS): 27.6 µM
- TGI (SK-MEL-28 melanoma): > 100 µM
- TGI (SNB-19 CNS): 79 µM
- TGI (TK-10 renal): 63.1 µM
- TGI (UACC-257 melanoma): 34.1 µM

SMILES: Nc1ccc(-c2nc3ccccc3s2)cc1Br
- TGI (786-0 renal): > 100 µM
- TGI (A498 renal): > 32.5 µM
- TGI (LOX IMVI melanoma): > 100 µM
- TGI (PC-3 prostate): > 100 µM
- TGI (SF-268 CNS): > 100 µM
- TGI (SF-539 CNS): > 78.9 µM
- TGI (SK-MEL-28 melanoma): > 100 µM
- TGI (SNB-19 CNS): > 100 µM
- TGI (TK-10 renal): > 100 µM
- TGI (UACC-257 melanoma): > 100 µM
